This passage reports TGI and GI50 results from PubChem BioAssay (NCI).

Where “and” joins values, the source holds several entries; their conditions need not be identical. Equal values may be shown once.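 In this assay, cells in 96-well plates receive the compound at five concentrations for 48 hours. Endpoints are linearly interpolated between the surrounding concentrations. GI50: concentration for 50% inhibition of growth. TGI: total growth inhibition.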

The first experiment relates to COLO 205 colon. In words: NCI-60 cell line screen, 48 h.
In turn, `CC(C)OP(=O)(OC(C)C)C(=NCCN=C(NNc1ccc([N+](=O)[O-])cc1)P(=O)(OC(C)C)OC(C)C)NNc1ccc([N+](=O)[O-])cc1` gave a TGI of 29.6 µM.
`COC(OC)C(C)CC(=O)N(C)C` (stereo not given) yielded a TGI of over 100 µM.
As for `O=S1(=O)OCCOS(=O)(=O)C1Br`, the TGI was over 100 µM.
The compound `C#CC1(O)CCC2C3CCc4cc(Oc5nc(F)nc(-c6c7ccccc7c7sc8ccccc8n67)n5)ccc4C3CC[C@@]21C` (stereo not given in full) showed a TGI of over 100 µM.
`C[Si](C)(C)C1(Sc2ccccc2)SCCCS1` had a TGI of over 100 µM.
Compound `O=c1cc(-c2ccccc2)oc2cc(OCCCOc3ccc4c(=O)cc(-c5ccccc5)oc4c3)ccc12` came in with a TGI of over 100 µM.

Another experiment concerns MOLT-4 leukemia. In words: NCI-60 cell line screen, 48 h.
Regarding `CCOC(=O)NC(=O)c1cn(CCCO)c(=O)[nH]c1=O`, the TGI is over 100 µM.
On to `CCN1c2ccccc2C(C(SC)S(=O)(=O)c2ccc(C)cc2)c2c1[nH]c(=O)n(C)c2=O` (stereo not given), for which the TGI is over 100 µM.
Turning to `COc1ccc(S(=O)(=O)NNS(C)(=O)=O)cc1`, the TGI is over 100 µM.
As to `Cn1cnc([N+](=O)[O-])c1Sc1nc2ccccc2[nH]1`, the TGI came to 29.9 µM.
Take `CCCCCCCCC/C=C1\CCC(CN2CCOCC2)C1=O` (stereo not given): the TGI is 5.84 µM.
In the case of `CCCCCCN(CCCCCC)C(=O)Cc1c2n(c3ccccc13)Cc1ccccc1-2`, the TGI is over 100 µM.
With `C=C1C(=O)O[C@H]2[C@H]1CC/C(COC(=O)c1c[nH]c3ccccc13)=C\CC[C@@]1(C)O[C@@H]21`, the GI50 was 0.282 µM and the TGI amounted to 1.45 µM.
Take `C/C(=N\NC(=S)NC(CCC(=O)O)C(=O)O)c1ccccn1` (stereo not given): the TGI is over 100 µM.
In turn, `Brc1ccccc1C1SCc2nc3ccccc3n21` (stereo not given) registered a TGI of over 100 µM.
Take `O=C(/C=C\c1ccc(Cl)c(Cl)c1)c1ccc(Cl)cc1Cl`: the TGI was 7.86 µM and 48.4 µM.
For `ClCc1cccc(Cn2cnc3ncnc(Cl)c32)c1`, the GI50 was 10.6 µM and the TGI came to 29.4 µM.
Compound `CCOC(=O)C(=C=C=C(c1ccccc1)c1ccccc1)C(=O)OCC` returned a TGI of 30.8 µM.
On the same count and under the same terms, under `Cn1c2ccccc2c2cc(-c3ccccc3)c3c(c21)C(=O)c1ccccc1C3=O` stands 92.7 µM.
Still for that read-out and setting: for `c1ccc(COc2cccc3ccc[n+](Cc4ccccc4)c23)cc1` the value was 51.8 µM; for `CN(C)c1ccc(/C=C(\NC(=O)c2ccccc2)c2nc3ncncc3[nH]2)cc1`, over 100 µM.
In turn, `CC1=CC(O)(c2ccc(-c3ccccc3Cl)cc2)OC1=O` (stereo not given) came in with a TGI of over 100 µM.
The compound `CCOC(=O)CC(=O)ON(C)C(C)=O` displayed a TGI of over 100 µM.
Compound `CCc1cc(Cc2cc(CC)c(NC(=O)C(=O)Cc3ccccn3)c(CC)c2Cl)c(Cl)c(CC)c1NC(=O)C(=O)Cc1ccccn1` registered a TGI of over 100 µM.
The compound `CC(C)OP(=O)(OC(C)C)C(=NCCN=C(NNc1ccc([N+](=O)[O-])cc1)P(=O)(OC(C)C)OC(C)C)NNc1ccc([N+](=O)[O-])cc1` yielded a TGI of over 100 µM.
On the same count and under the same terms, under `COC(OC)C(C)CC(=O)N(C)C` (stereo not given) stands over 100 µM.
Regarding `O=S1(=O)OCCOS(=O)(=O)C1Br`, the TGI was over 100 µM.
Compound `CC(C)=Cc1cc(C(=O)Nc2ccc(Cl)c(Cl)c2)nc(N)n1` showed a TGI of over 100 µM.
With `C#CC1(O)CCC2C3CCc4cc(Oc5nc(F)nc(-c6c7ccccc7c7sc8ccccc8n67)n5)ccc4C3CC[C@@]21C` (stereo not given in full), the TGI is over 100 µM.
The same measure, in the same setting: under `CC(=O)/C(=C\c1cccc([N+](=O)[O-])c1)C(=O)Nc1ccccc1C` stands over 100 µM.
`Clc1ccc(C(c2ccc(Cl)cc2)c2ccccn2)cc1`: the TGI is 56.6 µM.
Turning to `C[Si](C)(C)C1(Sc2ccccc2)SCCCS1`, the TGI came out at 85.1 µM.
On the same count and under the same terms, under `O=c1cc(-c2ccccc2)oc2cc(OCCCOc3ccc4c(=O)cc(-c5ccccc5)oc4c3)ccc12` stands over 100 µM.

The test system of another experiment is KM12 colon. Nature of the experiment: NCI-60 cell line screen, 48 h.
As to `CCOC(=O)NC(=O)c1cn(CCCO)c(=O)[nH]c1=O`, the TGI is over 100 µM.
Compound `CCN1c2ccccc2C(C(SC)S(=O)(=O)c2ccc(C)cc2)c2c1[nH]c(=O)n(C)c2=O` (stereo not given) showed a TGI of over 100 µM.
In turn, `COc1ccc(S(=O)(=O)NNS(C)(=O)=O)cc1` had a TGI of over 100 µM.
Consider `CC(=O)OC1COC(n2ccc3cc(Br)c([N+](=O)[O-])cc32)C(OC(C)=O)C1OC(C)=O` (stereo not given), for which the TGI is over 100 µM.
`Cn1cnc([N+](=O)[O-])c1Sc1nc2ccccc2[nH]1` returned a TGI of 48.4 µM.
Same read-out and setting: for `CCCCCCCCC/C=C1\CCC(CN2CCOCC2)C1=O` (stereo not given) the value was 5.2 µM.
In the case of `CCCCCCN(CCCCCC)C(=O)Cc1c2n(c3ccccc13)Cc1ccccc1-2`, the TGI was over 100 µM.
As for `C=C1C(=O)O[C@H]2[C@H]1CC/C(COC(=O)c1c[nH]c3ccccc13)=C\CC[C@@]1(C)O[C@@H]21`, the GI50 was 0.477 µM and the TGI came out at 2.36 µM.
As to `C/C(=N\NC(=S)NC(CCC(=O)O)C(=O)O)c1ccccn1` (stereo not given), the TGI is over 100 µM.
Same read-out and setting: for `Brc1ccccc1C1SCc2nc3ccccc3n21` (stereo not given) the value was 43.4 µM; for `O=C(/C=C\c1ccc(Cl)c(Cl)c1)c1ccc(Cl)cc1Cl`, 25.2 µM.
In the case of `ClCc1cccc(Cn2cnc3ncnc(Cl)c32)c1`, the GI50 was 1.85 µM and the TGI is 3.32 µM.
`CCOC(=O)C(=C=C=C(c1ccccc1)c1ccccc1)C(=O)OCC`: the TGI was found to be 46.1 µM.
The same measure, in the same setting: for `Cn1c2ccccc2c2cc(-c3ccccc3)c3c(c21)C(=O)c1ccccc1C3=O` the value was 75.8 µM; for `c1ccc(COc2cccc3ccc[n+](Cc4ccccc4)c23)cc1`, 15.7 µM; for `CN(C)c1ccc(/C=C(\NC(=O)c2ccccc2)c2nc3ncncc3[nH]2)cc1`, over 100 µM.
`CC1=CC(O)(c2ccc(-c3ccccc3Cl)cc2)OC1=O` (stereo not given) gave a TGI of over 100 µM.
As for `CCOC(=O)CC(=O)ON(C)C(C)=O`, the TGI was over 100 µM.
On to `CCc1cc(Cc2cc(CC)c(NC(=O)C(=O)Cc3ccccn3)c(CC)c2Cl)c(Cl)c(CC)c1NC(=O)C(=O)Cc1ccccn1`, for which the TGI was over 100 µM.
On to `CC(C)OP(=O)(OC(C)C)C(=NCCN=C(NNc1ccc([N+](=O)[O-])cc1)P(=O)(OC(C)C)OC(C)C)NNc1ccc([N+](=O)[O-])cc1`, for which the TGI was over 100 µM.
With `COC(OC)C(C)CC(=O)N(C)C` (stereo not given), the TGI is over 100 µM.
For the compound `O=S1(=O)OCCOS(=O)(=O)C1Br`, the TGI is over 100 µM.
As for `CC(C)=Cc1cc(C(=O)Nc2ccc(Cl)c(Cl)c2)nc(N)n1`, the TGI was over 100 µM.
In the case of `C#CC1(O)CCC2C3CCc4cc(Oc5nc(F)nc(-c6c7ccccc7c7sc8ccccc8n67)n5)ccc4C3CC[C@@]21C` (stereo not given in full), the TGI is over 100 µM.
On the same count and under the same terms, for `CC(=O)/C(=C\c1cccc([N+](=O)[O-])c1)C(=O)Nc1ccccc1C` the value was over 100 µM; for `Clc1ccc(C(c2ccc(Cl)cc2)c2ccccn2)cc1`, 42.5 µM.
`C[Si](C)(C)C1(Sc2ccccc2)SCCCS1` registered a TGI of over 100 µM.
In turn, `O=c1cc(-c2ccccc2)oc2cc(OCCCOc3ccc4c(=O)cc(-c5ccccc5)oc4c3)ccc12` gave a TGI of over 100 µM.
